Laboratory results taken from patent US9676997B2, “Compositions and methods for stabilizing luminogenic substrates” (Promega Corporation, priority 2014, dated 2017).

Assay: Stability of furimazine at 37° C. in different organic solvents with or without ATT, luminescence with NANOLUC luciferase
Format: physicochemical
Conditions: 50% PG:50% ethanol, 60% PG:40% ethanol, 15% glycerol:85% ethanol, 250 or 300 mM ATT vs no ATT
Procedure: To further examine the stabilization of furimazine at 37° C., luminescence was measured after furimazine was incubated in the presence of different organic solvents, namely 50% (v/v) propylene glycol (PG):50% (v/v) ethanol, 60% (v/v) propylene glycol (PG):40% (v/v) ethanol, and 15% (v/v) glycerol:85% (v/v) ethanol.
1.25 mM stocks of furimazine were prepared in the following solutions: a) 50% propylene glycol:50% ethanol, 1.25 mM furimazine, 250 mM ATT; b) 60% propylene glycol:40% ethanol, 1.25 mM furimazine, 300 mM ATT; c) 15% glycerol:85% ethanol, 1.25 mM furimazine, 250 mM ATT; and inventory furimazine (Promega Corporation). Furimazine was first dissolved and then ATT was added. To make 4 mL of each sample, 2 mg furimazine and 143 mg of ATT (250 mM ATT) was added. For 300 mM ATT, 171 mg of ATT was added.
A portion of these samples was aliquoted into amber Starstead tubes with O-rings and then placed at 37° C. […] The remaining sample was placed at −20° C. in a 15 mL tube and monitored for precipitate formation.
Prior to assaying the samples, they were heated to room temperature (RT) and vortexed to ensure that any material that fell out of solution was re-suspended. […] The resulting dilutions were incubated for 3 minutes at RT, and luminescence was detected on a luminometer (GLOMAX Multi plus luminometer, Promega Corporation). […]

## O=c1c(Cc2ccco2)nc2c(Cc3ccccc3)[nH]c(-c3ccccc3)cn1-2 [Furimazine, furimazine]
  stability of furimazine (normalized RLUs over time): more stable in the presence of ATT than in the absence of ATT for each organic solvent
